Data set [1] deals with Multidrug resistance protein 1a (Rattus norvegicus) (UniProt Q6PSM0). In words: TP_TRANSPORTER: Northern blot in vitro, nonparenchymal ral liver epithelial cells. The conditions noted are these: Epithelial cell. Format: functional.
Data set [2] has as its target ATP-dependent translocase ABCB1 (Rattus norvegicus, UniProt P43245). Briefly: TP_TRANSPORTER: RT-PCR in vitro, nonparenchymal rat liver epithelial cells. In kind it is functional, tissue-based. Particulars: epithelial cell.
For data set [3], the target named is Multidrug resistance protein 1a (Rattus norvegicus) (UniProt Q6PSM0). Briefly: TP_TRANSPORTER: Western in vitro, nonparenchymal rat liver epithelial cells. In kind it is functional, tissue-based. Particulars: Epithelial cell.

Our source for the Activity values is ChEMBL document CHEMBL2074305, “P-glycoprotein induction in rat liver epithelial cells in response to acute 3-methylcholanthrene treatment” (Biochem Pharmacol, 1996).

Multidrug resistance protein 1a (Rattus norvegicus), sequence (Q6PSM0 as listed by the source): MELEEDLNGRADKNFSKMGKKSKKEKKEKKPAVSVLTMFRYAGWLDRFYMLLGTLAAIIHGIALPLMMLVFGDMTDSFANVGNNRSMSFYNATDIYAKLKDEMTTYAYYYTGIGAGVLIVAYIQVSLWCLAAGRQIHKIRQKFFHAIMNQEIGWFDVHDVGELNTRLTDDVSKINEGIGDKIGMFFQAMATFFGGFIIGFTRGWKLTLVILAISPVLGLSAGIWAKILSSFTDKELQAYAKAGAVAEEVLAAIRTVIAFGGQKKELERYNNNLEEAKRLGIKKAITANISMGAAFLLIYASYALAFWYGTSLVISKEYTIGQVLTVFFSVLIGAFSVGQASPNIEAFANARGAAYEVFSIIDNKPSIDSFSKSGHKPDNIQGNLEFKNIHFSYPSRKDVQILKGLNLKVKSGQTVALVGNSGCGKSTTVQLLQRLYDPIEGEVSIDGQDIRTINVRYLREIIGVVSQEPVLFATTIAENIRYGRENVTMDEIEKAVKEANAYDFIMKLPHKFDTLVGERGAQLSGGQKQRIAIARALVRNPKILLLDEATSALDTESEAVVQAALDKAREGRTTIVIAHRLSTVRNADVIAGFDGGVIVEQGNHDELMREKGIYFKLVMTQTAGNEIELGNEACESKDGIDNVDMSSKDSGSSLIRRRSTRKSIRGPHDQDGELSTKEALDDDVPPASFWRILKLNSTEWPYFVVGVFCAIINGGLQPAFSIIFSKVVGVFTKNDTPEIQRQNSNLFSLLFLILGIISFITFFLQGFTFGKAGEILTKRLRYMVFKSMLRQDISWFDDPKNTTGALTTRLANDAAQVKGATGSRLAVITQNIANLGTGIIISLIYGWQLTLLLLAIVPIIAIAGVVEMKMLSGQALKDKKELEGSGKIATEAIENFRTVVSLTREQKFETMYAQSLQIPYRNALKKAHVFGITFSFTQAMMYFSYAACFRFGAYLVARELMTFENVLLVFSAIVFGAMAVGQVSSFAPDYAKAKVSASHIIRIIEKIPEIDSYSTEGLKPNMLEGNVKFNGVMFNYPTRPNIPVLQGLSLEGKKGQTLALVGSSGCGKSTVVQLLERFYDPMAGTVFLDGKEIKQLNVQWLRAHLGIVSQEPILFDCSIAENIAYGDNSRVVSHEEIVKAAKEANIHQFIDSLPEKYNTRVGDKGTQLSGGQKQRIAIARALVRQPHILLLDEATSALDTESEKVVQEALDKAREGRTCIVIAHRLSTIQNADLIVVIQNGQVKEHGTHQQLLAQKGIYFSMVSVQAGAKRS
ATP-dependent translocase ABCB1, sequence (P43245 whole entry): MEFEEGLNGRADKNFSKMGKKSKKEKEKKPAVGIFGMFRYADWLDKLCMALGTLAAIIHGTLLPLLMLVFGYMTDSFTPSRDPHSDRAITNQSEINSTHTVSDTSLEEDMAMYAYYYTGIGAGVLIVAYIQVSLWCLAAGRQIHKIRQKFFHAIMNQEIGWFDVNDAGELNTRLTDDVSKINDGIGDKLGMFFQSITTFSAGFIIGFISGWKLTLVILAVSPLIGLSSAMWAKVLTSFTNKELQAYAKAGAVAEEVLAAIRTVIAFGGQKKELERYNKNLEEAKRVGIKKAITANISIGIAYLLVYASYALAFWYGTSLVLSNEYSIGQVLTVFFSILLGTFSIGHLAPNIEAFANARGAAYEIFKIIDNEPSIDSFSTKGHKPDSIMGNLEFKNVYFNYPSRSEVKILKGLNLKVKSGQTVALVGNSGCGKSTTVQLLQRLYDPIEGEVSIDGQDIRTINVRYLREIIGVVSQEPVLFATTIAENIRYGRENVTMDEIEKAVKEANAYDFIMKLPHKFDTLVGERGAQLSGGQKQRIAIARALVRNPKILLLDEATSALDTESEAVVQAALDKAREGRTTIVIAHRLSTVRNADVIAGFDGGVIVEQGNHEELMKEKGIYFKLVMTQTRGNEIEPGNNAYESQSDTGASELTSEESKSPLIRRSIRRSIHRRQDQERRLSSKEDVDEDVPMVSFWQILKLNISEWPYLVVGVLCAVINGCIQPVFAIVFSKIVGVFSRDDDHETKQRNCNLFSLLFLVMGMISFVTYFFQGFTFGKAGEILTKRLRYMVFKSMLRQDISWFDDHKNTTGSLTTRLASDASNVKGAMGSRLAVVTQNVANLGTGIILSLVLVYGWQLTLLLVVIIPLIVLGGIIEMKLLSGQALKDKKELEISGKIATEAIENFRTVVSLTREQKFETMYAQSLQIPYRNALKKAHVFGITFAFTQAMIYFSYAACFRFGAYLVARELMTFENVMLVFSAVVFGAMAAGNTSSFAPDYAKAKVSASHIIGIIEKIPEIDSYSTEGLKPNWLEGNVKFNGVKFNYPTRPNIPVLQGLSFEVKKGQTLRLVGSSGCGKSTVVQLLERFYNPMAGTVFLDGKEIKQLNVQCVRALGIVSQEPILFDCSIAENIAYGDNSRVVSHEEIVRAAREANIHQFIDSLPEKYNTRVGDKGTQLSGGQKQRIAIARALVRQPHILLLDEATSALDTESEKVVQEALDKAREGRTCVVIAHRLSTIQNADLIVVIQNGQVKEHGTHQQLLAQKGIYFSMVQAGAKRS

With `C[C@@H]1C[C@@H]([C@H](O)CC2CC(=O)NC(=O)C2)C(=O)[C@@H](C)C1`, the Activity result in data set [1] was “inducer [+]”.

For `c1ccc2c(c1)cc1ccc3cccc4ccc2c1c34`, the Activity result in data set [1] was “inducer [+]”.

Turning to `Cc1ccc2cc3c(ccc4ccccc43)c3c2c1CC3` [3-METHYLCHOLANTHRENE], the Activity entry in data set [2] and in data set [3] was “inducer [+]” each time.
